Measurements taken from patent publication US8680133B2, “Alkyl indole-3-carbinol-derived antitumor agents” (The Ohio State University Research Foundation, priority 2009, dated 2014).
Entries after “also recorded” stand apart in the source; their conditions may differ.

Tests used:
OVCAR-5 = test: NCI60 screening, Ovarian Cancer, OVCAR-5; assay type: cell-based, human
[1] = test system: PC-3 prostate cancer cells; test: MTT assay of PC-3 cell viability; assay type: cell-based; settings: MTT assay, 24, 48 and 72 h; comparison in words
Description: Each data point represents means±S.D. (n=6). The activity of OSU-A9M versus its parent compound A9 ([1-(3′-nitro-4′-chlorobenzenesulfonyl)-1H-indol-3-yl]-methanol) and its fluorinated counterpart OSU-A9F ([1-(4-Chloro-3-nitro-benzenesulfonyl)-5-fluoro-1H-indol-3-yl])-methanol in suppressing the cell viability of PC-3 prostate cancer cells was compared using the MTT [3-(4,5-dimethylthiazol-2-yl)-2,5-diphenyl-2H-tetrazolium bromide] assay. Cancer cells and PrECs were grown in 5% FBS-supplemented RPMI 1640 medium or 5% FBS-supplemented prostate epithelial growth medium, respectively, in 96-well, flat-bottomed plates for 24 h, and then exposed to various concentrations of test agents in the same medium for the indicated time intervals. Controls received DMSO vehicle at a concentration equal to that in drug-treated cells. At the end of the treatment, the medium was removed, replaced by 200 μL of 0.5 mg/mL of MTT in the same medium, and cells were incubated in the CO2 incubator at 37° C. for 2 h. Supernatants were removed from the wells, and the reduced MTT dye was solubilized in 200 μL/well DMSO. Absorbance at 570 nm was determined on a plate reader.

HCT-116 = test: NCI60 screening, Colon Cancer, HCT-116; assay type: cell-based, human
NCI-H322M = test: NCI60 screening, Non-Small Cell Lung Cancer, NCI-H322M; assay type: cell-based, human
KM12 = test: NCI60 screening, Colon Cancer, KM12; assay type: cell-based, human
HOP-62 = test: NCI60 screening, Non-Small Cell Lung Cancer, HOP-62; assay type: cell-based, human
PC-3 xenograft tumor = PC-3 xenograft tumor growth in nude mice, 450 ppm in the diet; assay type: in vivo; settings: 450 ppm in AIN-76A rodent diet, vs control diet, P<0.05
Description: FIG. 3 provides a graph showing the in vivo efficacy of dietary OSU-A9M at 450 ppm in a rodent diet in suppressing PC-3 xenograft tumor growth in nude mice.
Given the increased potency of OSU-A9M compared to the other lead derivatives, an experimental diet was formulated. An AIN-76A rodent diet (American Institute of Nutrition; including primarily casein, sucrose, and corn starch) containing 450 ppm OSU-A9M was made to deliver approximately 50 mg/kg of drug per day to each mouse estimated by food consumption and body weight measurements.

SK-MEL-2 = test: NCI60 screening, Melanoma, SK-MEL-2; assay type: cell-based, human
[2] = Hematology, serum chemistry, liver weight and food consumption of mice fed the OSU-A9M diet; assay type: in vivo
Source text: Further supporting a lack of toxicity with the experimental diet is a preservation of body weight (and liver weight) of mice sacrificed at the conclusion of the 6-week treatment period. 1.3±0.1 g (3.9±0.5%) in drug-treated mice vs. 1.5±0.3 g (4.3±0.7%) in controls; liver percent body weight in parentheses following absolute weight, means±SD, n=7, P=0.1 and 0.5 for absolute and relative values. There was no significant difference in the amount of control or experimental diet consumed by the mice [2.4±0.3 g in drug-treated mice vs 2.5±0.1 g in controls (P=0.5)]. Throughout the treatment period, the drug-treated mice consumed 34.1±4.6 mg OSU-A9M per kg body weight per day, calculated as g diet consumed per day/g body weight×450 (overall mean±SD of weekly means).

NCI-H226 = test: NCI60 screening, Non-Small Cell Lung Cancer, NCI-H226; assay type: cell-based, human
CAKI-1 = test: NCI60 screening, Renal Cancer, CAKI-1; assay type: cell-based, human
[3] = Homo sapiens, read-out: LC50 (the source's name)
[4] = 450 ppm in diet, 6-week treatment, mean±SD, n=7
[5] = 450 ppm in diet, 18 to 24 weeks of age, mean±SD, n=5

## Cc1ccc2c(c1)c(CO)cn2S(=O)(=O)c1ccc(Cl)c([N+](=O)[O-])c1 [OSU-A9M, [1-(4-chloro-3-nitro-benzenesulfonyl)-5-methyl-1H-indol-3-yl]-methanol]
OVCAR-5
  TGI: 3.04E−6
OVCAR-5; Homo sapiens
  GI50: 1680 nM
OVCAR-5; [3]
  CC50: 5.51 µM
OVCAR-5; Log10 Concentration −4.0
  Percent Growth: −100%
OVCAR-5; Log10 Concentration −5.0
  Percent Growth: −100%
OVCAR-5; Log10 Concentration −6.0
  Percent Growth: 93%
OVCAR-5; Log10 Concentration −7.0
  Percent Growth: 92%
OVCAR-5; Log10 Concentration −8.0
  Percent Growth: 95%
[1]
  In vitro potency against the viability of PC-3 cells: greater than or similar to that of OSU-A9; also recorded: greater potency than OSU-A9 and OSU-A9F
HCT-116
  TGI: 1.57E−6
HCT-116; Homo sapiens
  GI50: 461 nM
  LC50: 3.97 µM
HCT-116; Log10 Concentration −4.0
  Percent Growth: −100%
HCT-116; Log10 Concentration −5.0
  Percent Growth: −100%
HCT-116; Log10 Concentration −6.0
  Percent Growth: 24%
HCT-116; Log10 Concentration −7.0
  Percent Growth: 100%
HCT-116; Log10 Concentration −8.0
  Percent Growth: 101%
NCI-H322M
  TGI: 3.10E−6
NCI-H322M; Homo sapiens
  GI50: 1680 nM
  LC50: 5.71 µM
NCI-H322M; Log10 Concentration −4.0
  Percent Growth: −93%
NCI-H322M; Log10 Concentration −5.0
  Percent Growth: −96%
NCI-H322M; Log10 Concentration −6.0
  Percent Growth: 93%
NCI-H322M; Log10 Concentration −7.0
  Percent Growth: 89%
NCI-H322M; Log10 Concentration −8.0
  Percent Growth: 91%
KM12
  TGI: 2.97E−6
KM12; Homo sapiens
  GI50: 1620 nM
KM12; [3]
  CC50: 5.45 µM
KM12; Log10 Concentration −4.0
  Percent Growth: −100%
KM12; Log10 Concentration −5.0
  Percent Growth: −100%
KM12; Log10 Concentration −6.0
  Percent Growth: 90%
KM12; Log10 Concentration −7.0
  Percent Growth: 97%
KM12; Log10 Concentration −8.0
  Percent Growth: 105%
HOP-62
  TGI: 3.11E−6
HOP-62; Homo sapiens
  GI50: 1740 nM
HOP-62; [3]
  CC50: 5.58 µM
HOP-62; Log10 Concentration −4.0
  Percent Growth: −99%
HOP-62; Log10 Concentration −5.0
  Percent Growth: −100%
HOP-62; Log10 Concentration −6.0
  Percent Growth: 97%
HOP-62; Log10 Concentration −7.0
  Percent Growth: 95%
HOP-62; Log10 Concentration −8.0
  Percent Growth: 98%
PC-3 xenograft tumor
  Suppression of the growth of PC-3 xenograft tumors: 59.6%
SK-MEL-2
  TGI: 3.04E−6
SK-MEL-2; Homo sapiens
  GI50: 1600 nM
SK-MEL-2; [3]
  CC50: 5.78 µM
SK-MEL-2; Log10 Concentration −4.0
  Percent Growth: −93%
SK-MEL-2; Log10 Concentration −5.0
  Percent Growth: −93%
SK-MEL-2; Log10 Concentration −6.0
  Percent Growth: 86%
SK-MEL-2; Log10 Concentration −7.0
  Percent Growth: 96%
SK-MEL-2; Log10 Concentration −8.0
  Percent Growth: 102%
[2]; 450 ppm experimental diet
  Amount of diet consumed: 2.4 ± 0.3 g
[2]; [4]
  Liver percent body weight: 3.9±0.5%
  Liver weight (absolute): 1.3 ± 0.1 g
[2]; [5]
  ALP: 70.0 ± 14.6 iu/L
  ALT: 25.8 ± 8.0 iu/L
  AST: 69.6 ± 27.2 iu/L
  Albumin: 3.6 ± 0.2 g/dL
  BUN: 23.6 ± 2.9 mg/dL
  CK: 222.2 ± 144.5 iu/L
  Calcium: 10.7 ± 0.2 mg/dL
  Cholesterol: 193.4 ± 28.1 mg/dL
  Creatinine: 0.1 ± 0.0 mg/dL
  Globulin: 2.2 ± 0.1 g/dL
  Glucose: 301.8 ± 53.6 mg/dL
  Lymphocytes: 9.8 ± 3.1 ×10^3/μl
  Nucleated cells: 11.4 ± 3.7 ×10^3/μl
  PCV: 44.4 ± 1.1%
  Phosphorus: 6.5 ± 0.5 mg/dL
  Platelets: 327.2 ± 310.0 ×10^3/μl
  Potassium: 6.9 ± 0.4 mEq/L
  RBC: 10.3 ± 0.3 ×10^6/μl
  Segmented neutrophils: 1.3 ± 0.5 ×10^3/μl
  Total Bilirubin: 0.2 ± 0.0 mg/dL
  Total Protein: 5.8 ± 0.3 g/dL
[2]; 450 ppm in diet, in words
  Complete cell blood counts and serum chemistry profiles: none of the measured parameters are affected by drug treatment
NCI-H226
  TGI: 3.32E−6
NCI-H226; Homo sapiens
  GI50: 953 nM
NCI-H226; [3]
  CC50: 17.4 µM
NCI-H226; Log10 Concentration −4.0
  Percent Growth: −65%
NCI-H226; Log10 Concentration −5.0
  Percent Growth: −45%
NCI-H226; Log10 Concentration −6.0
  Percent Growth: 49%
NCI-H226; Log10 Concentration −7.0
  Percent Growth: 93%
NCI-H226; Log10 Concentration −8.0
  Percent Growth: 91%
CAKI-1
  TGI: 2.90E−6
CAKI-1; Homo sapiens
  GI50: 1480 nM
CAKI-1; [3]
  CC50: 5.7 µM
CAKI-1; Log10 Concentration −4.0
  Percent Growth: −95%
CAKI-1; Log10 Concentration −5.0
  Percent Growth: −92%
CAKI-1; Log10 Concentration −6.0
  Percent Growth: 79%
CAKI-1; Log10 Concentration −7.0
  Percent Growth: 95%
CAKI-1; Log10 Concentration −8.0
  Percent Growth: 92%
